According to PubChem BioAssay AID1918991 (Molecular Pharmacology Branch, DTP, NCI, 2023):
pIC50: −log10 of the molar value.

System: 186277-243-T-J2-PDC complex spheroid growth
Assay: Anticancer human tumor 186277-243-T-J2-PDC patient-derived colon adenocarcinoma cell line growth inhibition [AhR]
Details: for pIC50: curve of first compound; for viability, T/C: stronger effect = lower value
Summary of the method: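 Agents were dosed in half-log steps down from roughly clinical Cmax, or from 10 microM where Cmax was unknown, alone and with AhR antagonists. Read-out: percent test/control growth of tumor spheroids containing HUVEC and MSC stromal cells.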

[1] = second compound 0.1 µM, first compound 0.0316 µM
[2] = second compound 0.1 µM, first compound 0.1 µM
[3] = second compound 0.1 µM, first compound 0.316 µM
[4] = second compound 0.1 µM, first compound 1 µM
[5] = second compound 0.1 µM, first compound 3.16 µM
[6] = second compound 0.1 µM, first compound 10 µM
[7] = second compound 0.316 µM, first compound 0.0316 µM
[8] = second compound 0.316 µM, first compound 0.1 µM
[9] = second compound 0.316 µM, first compound 0.316 µM
[10] = second compound 0.316 µM, first compound 1 µM
[11] = second compound 0.316 µM, first compound 3.16 µM
[12] = second compound 0.316 µM, first compound 10 µM
[13] = second compound 1 µM, first compound 0.0316 µM
[14] = second compound 1 µM, first compound 0.1 µM
[15] = second compound 1 µM, first compound 0.316 µM
[16] = second compound 1 µM, first compound 1 µM
[17] = second compound 1 µM, first compound 3.16 µM
[18] = second compound 1 µM, first compound 10 µM
[19] = second compound 3.16 µM, first compound 0.0316 µM
[20] = second compound 3.16 µM, first compound 0.1 µM
[21] = second compound 3.16 µM, first compound 0.316 µM
[22] = second compound 3.16 µM, first compound 1 µM
[23] = second compound 3.16 µM, first compound 3.16 µM
[24] = second compound 3.16 µM, first compound 10 µM
[25] = second compound 10 µM, first compound 0.0316 µM
[26] = second compound 10 µM, first compound 0.1 µM
[27] = second compound 10 µM, first compound 0.316 µM
[28] = second compound 10 µM, first compound 1 µM
[29] = second compound 10 µM, first compound 3.16 µM
[30] = second compound 10 µM, first compound 10 µM
[31] = second compound 0.1 µM, first compound 0.00949 µM
[32] = second compound 0.1 µM, first compound 0.03 µM
[33] = second compound 0.1 µM, first compound 0.0949 µM
[34] = second compound 0.1 µM, first compound 0.3 µM
[35] = second compound 0.316 µM, first compound 0.00949 µM
[36] = second compound 0.316 µM, first compound 0.03 µM
[37] = second compound 0.316 µM, first compound 0.0949 µM
[38] = second compound 0.316 µM, first compound 0.3 µM
[39] = second compound 1 µM, first compound 0.00949 µM
[40] = second compound 1 µM, first compound 0.03 µM
[41] = second compound 1 µM, first compound 0.0949 µM
[42] = second compound 1 µM, first compound 0.3 µM
[43] = second compound 3.16 µM, first compound 0.00949 µM
[44] = second compound 3.16 µM, first compound 0.03 µM
[45] = second compound 3.16 µM, first compound 0.0949 µM
[46] = second compound 3.16 µM, first compound 0.3 µM
[47] = second compound 10 µM, first compound 0.00949 µM
[48] = second compound 10 µM, first compound 0.03 µM
[49] = second compound 10 µM, first compound 0.0949 µM
[50] = second compound 10 µM, first compound 0.3 µM
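Further: spheroids exposed to compounds for seven days before the viability read.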
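Wherever viability, T/C is given: luminescent signal used as a stand-in for viable cell amount; 100% = DMSO vehicle control wells.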

## CC1(C)CCC(CN2CCN(c3ccc(C(=O)NS(=O)(=O)c4ccc(NCC5CCOCC5)c([N+](=O)[O-])c4)c(Oc4cnc5[nH]ccc5c4)c3)CC2)=C(c2ccc(Cl)cc2)C1 + Cc1cncc(-c2nc(NCCc3c[nH]c4ccccc34)c3ncn(C(C)C)c3n2)c1
Second compound 0.1 µM
  pIC50: < 5.00
Second compound 0.316 µM
  pIC50: < 5.00
Second compound 1 µM
  pIC50: < 5.00
Second compound 3.16 µM
  pIC50: < 5.00
Second compound 10 µM
  pIC50: < 5.00
[1]
  viability, T/C: 88.2%
[2]
  viability, T/C: 97.7%
[3]
  viability, T/C: 99.4%
[4]
  viability, T/C: 91.4%
[5]
  viability, T/C: 94.3%
[6]
  viability, T/C: 94.8%
[7]
  viability, T/C: 109%
[8]
  viability, T/C: 87.4%
[9]
  viability, T/C: 102%
[10]
  viability, T/C: 83.5%
[11]
  viability, T/C: 100%
[12]
  viability, T/C: 106%
[13]
  viability, T/C: 102%
[14]
  viability, T/C: 85.5%
[15]
  viability, T/C: 97.4%
[16]
  viability, T/C: 97.9%
[17]
  viability, T/C: 103%
[18]
  viability, T/C: 103%
[19]
  viability, T/C: 110%
[20]
  viability, T/C: 108%
[21]
  viability, T/C: 105%
[22]
  viability, T/C: 103%
[23]
  viability, T/C: 109%
[24]
  viability, T/C: 105%
[25]
  viability, T/C: 77%
[26]
  viability, T/C: 81.6%
[27]
  viability, T/C: 82.8%
[28]
  viability, T/C: 95.5%
[29]
  viability, T/C: 88.4%
[30]
  viability, T/C: 88.5%

## CC1COCCN1c1cc(C2(S(C)(=N)=O)CC2)nc(-c2ccnc3[nH]ccc23)n1 (stereo not given) + Cc1cncc(-c2nc(NCCc3c[nH]c4ccccc34)c3ncn(C(C)C)c3n2)c1
Second compound 0.1 µM
  pIC50: 5.39
Second compound 0.316 µM
  pIC50: 5.40
Second compound 1 µM
  pIC50: 5.43
Second compound 3.16 µM
  pIC50: 5.54
Second compound 10 µM
  pIC50: 5.89
[1]
  viability, T/C: 85.5%
[2]
  viability, T/C: 119%
[3]
  viability, T/C: 91.6%
[4]
  viability, T/C: 99.5%
[5]
  viability, T/C: 62%
[6]
  viability, T/C: 6.76%
[7]
  viability, T/C: 96.8%
[8]
  viability, T/C: 97.2%
[9]
  viability, T/C: 87.3%
[10]
  viability, T/C: 106%
[11]
  viability, T/C: 60.9%
[12]
  viability, T/C: 7.2%
[13]
  viability, T/C: 95.4%
[14]
  viability, T/C: 106%
[15]
  viability, T/C: 97.3%
[16]
  viability, T/C: 106%
[17]
  viability, T/C: 57.1%
[18]
  viability, T/C: 7.29%
[19]
  viability, T/C: 105%
[20]
  viability, T/C: 105%
[21]
  viability, T/C: 102%
[22]
  viability, T/C: 105%
[23]
  viability, T/C: 45.5%
[24]
  viability, T/C: 8.1%
[25]
  viability, T/C: 79.2%
[26]
  viability, T/C: 79%
[27]
  viability, T/C: 70.1%
[28]
  viability, T/C: 60.6%
[29]
  viability, T/C: 18.6%
[30]
  viability, T/C: 5.52%

## CCN(c1cc(-c2ccc(CN3CCOCC3)cc2)cc(C(=O)NCc2c(C)cc(C)[nH]c2=O)c1C)C1CCOCC1 + Cc1cncc(-c2nc(NCCc3c[nH]c4ccccc34)c3ncn(C(C)C)c3n2)c1
Second compound 0.1 µM
  pIC50: < 5.52
Second compound 0.316 µM
  pIC50: < 5.52
Second compound 1 µM
  pIC50: < 5.52
Second compound 3.16 µM
  pIC50: < 5.52
Second compound 10 µM
  pIC50: 6.19
[31]
  viability, T/C: 106%
[32]
  viability, T/C: 89.7%
[33]
  viability, T/C: 108%
[34]
  viability, T/C: 102%
Second compound 0.1 µM, first compound 0.949 µM
  viability, T/C: 94%
Second compound 0.1 µM, first compound 3 µM
  viability, T/C: 98.5%
[35]
  viability, T/C: 91.8%
[36]
  viability, T/C: 110%
[37]
  viability, T/C: 102%
[38]
  viability, T/C: 101%
Second compound 0.316 µM, first compound 0.949 µM
  viability, T/C: 106%
Second compound 0.316 µM, first compound 3 µM
  viability, T/C: 103%
[39]
  viability, T/C: 98%
[40]
  viability, T/C: 115%
[41]
  viability, T/C: 115%
[42]
  viability, T/C: 102%
Second compound 1 µM, first compound 0.949 µM
  viability, T/C: 111%
Second compound 1 µM, first compound 3 µM
  viability, T/C: 107%
[43]
  viability, T/C: 102%
[44]
  viability, T/C: 103%
[45]
  viability, T/C: 103%
[46]
  viability, T/C: 105%
Second compound 3.16 µM, first compound 0.949 µM
  viability, T/C: 90.7%
Second compound 3.16 µM, first compound 3 µM
  viability, T/C: 119%
[47]
  viability, T/C: 84.8%
[48]
  viability, T/C: 98.5%
[49]
  viability, T/C: 82.9%
[50]
  viability, T/C: 72.1%
Second compound 10 µM, first compound 0.949 µM
  viability, T/C: 39.6%
Second compound 10 µM, first compound 3 µM
  viability, T/C: 9.95%

## Nc1ncn(C2CC(O)C(CO)S2)c(=O)n1 (stereo not given) + Cc1cncc(-c2nc(NCCc3c[nH]c4ccccc34)c3ncn(C(C)C)c3n2)c1
Second compound 0.1 µM
  pIC50: < 6.52
Second compound 0.316 µM
  pIC50: < 6.52
Second compound 1 µM
  pIC50: < 6.52
Second compound 3.16 µM
  pIC50: < 6.52
Second compound 10 µM
  pIC50: < 6.52
Second compound 0.1 µM, first compound 0.000949 µM
  viability, T/C: 102%
Second compound 0.1 µM, first compound 0.003 µM
  viability, T/C: 91.9%
[31]
  viability, T/C: 95.1%
[32]
  viability, T/C: 129%
[33]
  viability, T/C: 148%
[34]
  viability, T/C: 104%
Second compound 0.316 µM, first compound 0.000949 µM
  viability, T/C: 89.5%
Second compound 0.316 µM, first compound 0.003 µM
  viability, T/C: 89.4%
[35]
  viability, T/C: 104%
[36]
  viability, T/C: 109%
[37]
  viability, T/C: 140%
[38]
  viability, T/C: 105%
Second compound 1 µM, first compound 0.000949 µM
  viability, T/C: 98.2%
Second compound 1 µM, first compound 0.003 µM
  viability, T/C: 107%
[39]
  viability, T/C: 107%
[40]
  viability, T/C: 140%
[41]
  viability, T/C: 140%
[42]
  viability, T/C: 115%
Second compound 3.16 µM, first compound 0.000949 µM
  viability, T/C: 92.2%
Second compound 3.16 µM, first compound 0.003 µM
  viability, T/C: 89.9%
[43]
  viability, T/C: 90%
[44]
  viability, T/C: 106%
[45]
  viability, T/C: 121%
[46]
  viability, T/C: 98.4%
Second compound 10 µM, first compound 0.000949 µM
  viability, T/C: 79.5%
Second compound 10 µM, first compound 0.003 µM
  viability, T/C: 80.2%
[47]
  viability, T/C: 71.8%
[48]
  viability, T/C: 76.9%
[49]
  viability, T/C: 70.9%
[50]
  viability, T/C: 63.3%
